The experiment has as its target T1, LRRK2 G2019S mutant kinase (Homo sapiens, UniProt Q5S007, G2019S).
T1 construct: GST; purchased Invitrogen PV4882
Description: LRRK2 G2019S LanthaScreen TR-FRET kinase assay. In kind it is biochemical. The note with it: LRRK2 G2019S GST-tagged protein, 75 nM Fluorescein-ERM (LRRKtide), 100 μM ATP, 1 hour at room temperature; read-out: IC50 (potency). As for the experimental part: The final solvent concentration in the assay was 1% DMSO. […] Generation of raw data and workup of data to derive the IC50 (potency) and maximal inhibition at concentrations tested were performed using Merck's Assay Data Analyzer (ADA) software.
The IC50 (potency) was evaluated for the example compounds presented above.
A general note: Time-resolved FRET reads energy transfer from a long-lived donor to a nearby acceptor.
T1 sequence (Q5S007 whole entry G2019S): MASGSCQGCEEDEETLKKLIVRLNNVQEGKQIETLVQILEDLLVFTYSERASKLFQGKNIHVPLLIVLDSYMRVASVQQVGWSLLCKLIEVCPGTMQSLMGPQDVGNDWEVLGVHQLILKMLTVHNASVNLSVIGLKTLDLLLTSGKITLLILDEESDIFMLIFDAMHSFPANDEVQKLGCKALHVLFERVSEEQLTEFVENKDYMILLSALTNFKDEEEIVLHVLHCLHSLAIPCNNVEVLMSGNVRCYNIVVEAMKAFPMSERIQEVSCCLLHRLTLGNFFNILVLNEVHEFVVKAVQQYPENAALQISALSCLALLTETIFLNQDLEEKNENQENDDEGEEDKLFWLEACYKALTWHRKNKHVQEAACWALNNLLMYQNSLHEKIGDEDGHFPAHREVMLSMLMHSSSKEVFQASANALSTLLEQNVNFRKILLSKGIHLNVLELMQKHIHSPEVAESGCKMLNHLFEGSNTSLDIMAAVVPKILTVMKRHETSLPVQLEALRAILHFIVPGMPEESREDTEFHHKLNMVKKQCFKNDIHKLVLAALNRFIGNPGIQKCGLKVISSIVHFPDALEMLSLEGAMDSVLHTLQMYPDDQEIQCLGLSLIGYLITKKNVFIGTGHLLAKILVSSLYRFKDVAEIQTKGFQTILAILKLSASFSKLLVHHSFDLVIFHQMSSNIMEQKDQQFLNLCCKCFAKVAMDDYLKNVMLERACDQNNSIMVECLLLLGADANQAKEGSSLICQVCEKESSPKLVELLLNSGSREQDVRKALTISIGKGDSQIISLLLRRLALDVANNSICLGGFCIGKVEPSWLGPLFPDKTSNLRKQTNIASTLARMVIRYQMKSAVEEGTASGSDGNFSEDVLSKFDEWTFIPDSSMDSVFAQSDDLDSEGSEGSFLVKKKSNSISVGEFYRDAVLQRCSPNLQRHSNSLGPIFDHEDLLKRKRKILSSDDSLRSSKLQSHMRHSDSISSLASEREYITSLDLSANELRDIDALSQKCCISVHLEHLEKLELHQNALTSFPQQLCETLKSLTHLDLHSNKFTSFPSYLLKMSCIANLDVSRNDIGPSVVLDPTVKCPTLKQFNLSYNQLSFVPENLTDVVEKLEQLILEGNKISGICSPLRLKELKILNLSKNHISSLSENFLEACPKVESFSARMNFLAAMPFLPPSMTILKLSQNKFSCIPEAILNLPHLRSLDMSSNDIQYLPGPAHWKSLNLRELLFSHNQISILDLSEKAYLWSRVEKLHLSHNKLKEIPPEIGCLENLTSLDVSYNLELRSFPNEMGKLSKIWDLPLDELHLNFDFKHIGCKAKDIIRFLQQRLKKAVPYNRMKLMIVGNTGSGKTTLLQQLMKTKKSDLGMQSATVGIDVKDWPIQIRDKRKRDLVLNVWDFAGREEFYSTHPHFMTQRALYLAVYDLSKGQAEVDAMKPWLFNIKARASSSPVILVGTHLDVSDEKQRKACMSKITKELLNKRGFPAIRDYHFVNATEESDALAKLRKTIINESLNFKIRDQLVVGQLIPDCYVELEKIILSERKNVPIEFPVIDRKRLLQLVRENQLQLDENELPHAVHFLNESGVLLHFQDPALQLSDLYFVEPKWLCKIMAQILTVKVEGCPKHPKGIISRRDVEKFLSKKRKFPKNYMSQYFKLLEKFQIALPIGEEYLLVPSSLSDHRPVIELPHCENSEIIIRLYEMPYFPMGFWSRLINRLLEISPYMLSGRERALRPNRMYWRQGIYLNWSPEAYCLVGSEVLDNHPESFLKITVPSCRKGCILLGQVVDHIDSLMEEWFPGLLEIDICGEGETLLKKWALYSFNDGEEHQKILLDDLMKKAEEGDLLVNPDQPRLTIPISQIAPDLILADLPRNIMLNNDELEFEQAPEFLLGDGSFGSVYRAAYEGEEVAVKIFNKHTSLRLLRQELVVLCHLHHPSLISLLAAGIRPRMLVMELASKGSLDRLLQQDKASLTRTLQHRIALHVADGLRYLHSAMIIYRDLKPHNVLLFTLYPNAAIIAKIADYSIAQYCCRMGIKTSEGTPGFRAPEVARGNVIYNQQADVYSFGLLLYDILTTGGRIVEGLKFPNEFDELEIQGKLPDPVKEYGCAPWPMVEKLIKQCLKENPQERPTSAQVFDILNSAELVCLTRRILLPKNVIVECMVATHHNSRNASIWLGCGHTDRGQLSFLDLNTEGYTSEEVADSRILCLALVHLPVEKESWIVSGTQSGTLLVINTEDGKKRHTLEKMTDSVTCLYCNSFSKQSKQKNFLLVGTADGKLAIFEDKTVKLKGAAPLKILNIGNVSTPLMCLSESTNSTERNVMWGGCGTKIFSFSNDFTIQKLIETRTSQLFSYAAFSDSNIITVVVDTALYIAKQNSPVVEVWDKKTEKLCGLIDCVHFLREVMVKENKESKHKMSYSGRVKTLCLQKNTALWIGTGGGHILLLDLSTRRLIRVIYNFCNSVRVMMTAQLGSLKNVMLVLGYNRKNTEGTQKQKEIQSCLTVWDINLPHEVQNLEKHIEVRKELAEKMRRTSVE
For the compound `CSc1sc(-c2cc[nH]n2)c2c1C(=O)N(CCC1CCCNC1)CC2` (stereo not shown) [Example 73, 3-(methylsulfanyl)-5-[2-(3-piperidinyl)ethyl]-1-(1H-pyrazol-3-yl)-6,7-dihydrothieno[3,4-c]pyridin-4(5)-one], the 50% inhibitory concentration (IC50) (usually the concentration that inhibits the measured activity by half) worked out at 5900 nM. The value for `CSc1sc(-c2cc[nH]n2)c2c1C(=O)N(CCCCCc1ccccc1)CC2` [Example 74, 5-[(5-phenyl)pentyl]-3-(methylsulfanyl)-1-(1H-pyrazol-3-yl)-6,7-dihydrothieno[3,4-c]pyridin-4(5)-one] was 7500 nM; that for `CSc1sc(-c2cc[nH]n2)c2c1C(=O)N(C)CC2` [Example 75, 5-methyl-3-(methylsulfanyl)-1-(1H-pyrazol-3-yl)-6,7-dihydrothieno[3,4-c]pyridin-4(5)-one] was 3300 nM. In the case of `CCN1CCc2c(-c3cc[nH]n3)sc(SC)c2C1=O` [Example 76, 5-ethyl-3-(methylsulfanyl)-1-(1H-pyrazol-3-yl)-6,7-dihydrothieno[3,4-c]pyridin-4(5)-one] it was 2200 nM; in that of `CSc1sc(-c2cc[nH]n2)c2c1C(=O)N(Cc1ccccc1)CC2` [Example 77, 5-benzyl-3-(methylsulfanyl)-1-(1H-pyrazol-3-yl)-6,7-dihydrothieno[3,4-c]pyridin-4(5)-one], 1300 nM; in that of `CSc1sc(-c2cc[nH]n2)c2c1C(=O)N(CCc1ccccn1)CC2` [Example 78, 3-(methylsulfanyl)-5-[2-(2-pyridyl)ethyl]-1-(1H-pyrazol-3-yl)-6,7-dihydrothieno[3,4-c]pyridin-4(5)-one], 5700 nM.

Take `CSc1sc(-c2cc[nH]n2)c2c1C(=O)N(CCCc1ccccc1)CC2` [Example 79]: the IC50 turned out to be 3500 nM.

As for `CSc1sc(-c2cc[nH]n2)c2c1C(=O)N(CCN1CCCCC1)CC2` [Example 80, 3-(methylsulfanyl)-5-[2-(piperidin-1-yl)ethyl]-1-(1H-pyrazol-3-yl)-6,7-dihydrothieno[3,4-c]pyridin-4(5)-one], the IC50 amounted to 7800 nM. Take `CSc1sc(-c2cc[nH]n2)c2c1C(=O)N(c1ccccc1)CC2` [Example 81, 3-(Methylsulfanyl)-5-phenyl-1-(1H-pyrazol-3-yl)-6,7-dihydrothieno[3,4-c]pyridin-4(5H)-one]: the IC50 was found to be 2000 nM. In the case of `CSc1sc(-c2cc[nH]n2)c2c1C(=O)N(c1cccc(F)c1)CC2` [Example 82, 5-(3-fluorophenyl)-3-(methylsulfanyl)-1-(1H-pyrazol-3-yl)-6,7-dihydrothieno[3,4-c]pyridin-4(5)-one] it was 4000 nM; in that of `CSc1sc(-c2cc[nH]n2)c2c1C(=O)N(c1ccc(C)cc1)CC2` [Example 83], 3300 nM; in that of `COc1cccc(N2CCc3c(-c4cc[nH]n4)sc(SC)c3C2=O)c1` [Example 84, 5-(3-methoxyphenyl)-3-(methylsulfanyl)-1-(1H-pyrazol-3-yl)-6,7-dihydrothieno[3,4-c]pyridin-4(5)-one], 4700 nM. As for `CSc1sc(-c2cc[nH]n2)c2c1C(=O)N(c1ccccc1F)CC2` [Example 85, 5-(2-fluorophenyl)-3-(methylsulfanyl)-1-(1H-pyrazol-3-yl)-6,7-dihydrothieno[3,4-c]pyridin-4(5)-one], the IC50 is 3100 nM. The value for `CC1CNC(=O)c2c(NC3CCCC3)sc(-c3cc[nH]n3)c21` (stereo not shown) [Example 86, 3-(cyclopentylamino)-7-methyl-1-(1H-pyrazol-3-yl)-6,7-dihydrothieno[3,4-e]pyridin-4(5H)-one] was 120 nM; that for `CC1Cc2c(-c3cc[nH]n3)sc(NC3CCCC3)c2C(=O)N1` (stereo not shown) [Example 87, 3-(cyclopentylamino)-6-methyl-1-(1H-pyrazol-3-yl)-6,7-dihydrothieno[3,4-c]pyridin-4(5H)-one] was 320 nM; that for `O=C1NC2(CCC2)Cc2c(-c3cc[nH]n3)sc(NC3CCCC3)c21` [Example 88, 3′-(cyclopentylamino)-4′-oxo-1′-(1H-pyrazol-3-yl)-7′H-spiro[cyclobutane-1,6′-thieno[3,4-1]pyridine]-4′(5′H)-one] was 120 nM. In the case of `CC(C)CC1Cc2c(-c3cc[nH]n3)sc(NC3CCCC3)c2C(=O)N1` (stereo not shown) [Example 89, 3-(cyclopentylamino)-6-(2-methyl)propyl-1-(1H-pyrazol-3-yl)-6,7-dihydrothieno[3,4-c]pyridin-4(5H)-one] it was 190 nM; in that of `O=C1NCCc2c(-c3cc[nH]n3)sc(NC3CCCC3)c21` [Example 90, 3-(cyclopentylamino)-(1H-pyrazol-3-yl)-6,7-dihydrothieno[3,4-c]pyridin-4(5H)-one], 360 nM; in that of `CNc1sc(-c2cc[nH]n2)c2c1C(=O)NCC2` [Example 91, 3-(methylamino)-(1H-pyrazol-3-yl)-6,7-dihydrothieno[3,4-c]pyridin-4(5H)-one], 1400 nM. With `O=C1NC(Cc2ccccc2)Cc2c(-c3cc[nH]n3)sc(NC3CCCC3)c21` (stereo not shown) [Example 92, 3-(cyclopentylamino)-6-benzyl-1-(1H-pyrazol-3-yl)-6,7-dihydrothieno[3,4-c]pyridin-4(5H)-one], the IC50 was 290 nM.

In the case of `CNc1sc(-c2cc[nH]n2)c2c1C(=O)NC(Cc1ccccc1)C2` (stereo not shown) [Example 93, 3-(methylamino)-6-benzyl-1-(1H-pyrazol-3-yl)-6,7-dihydrothieno[3,4-c]pyridin-4(5H)-one], the IC50 came to 330 nM.

Regarding `CNc1sc(-c2cc[nH]n2)c2c1C(=O)NC1(CCC1)C2` [Example 94, 3′-(methylamino)-4′-oxo-1′-(1H-pyrazol-3-yl)-7′H-spiro[cyclobutane-1,6′-thieno[3,4-1]pyridine]-4′(5′H)-one], the IC50 amounted to 550 nM.

In the case of `CNc1sc(-c2cc[nH]n2)c2c1C(=O)NC(CC(C)C)C2` (stereo not shown) [Example 95, 3-(methylamino)-6-(2-methyl)propyl-1-(1H-pyrazol-3-yl)-6,7-dihydrothieno[3,4-c]pyridin-4(5H)-one], the IC50 was 470 nM.

As for `CNc1sc(-c2cc[nH]n2)c2c1C(=O)NCC2C` (stereo not shown) [Example 96, 3-(methylamino)-7-methyl-1-(1H-pyrazol-3-yl)-6,7-dihydrothieno[3,4-c]pyridin-4(5H)-one], the IC50 worked out at 370 nM. In the case of `C[C@H]1Cc2c(-c3cc[nH]n3)sc(NC3CCCC3)c2C(=O)N1` [Example 97, (6S)-3-(cyclopentylamino)-6-methyl-1-(1H-pyrazol-3-yl)-6,7-dihydrothieno[3,4-c]pyridin-4(5H)-one] it was 320 nM; in that of `C[C@@H]1Cc2c(-c3cc[nH]n3)sc(NC3CCCC3)c2C(=O)N1` [Example 98, (6R)-3-(cyclopentylamino)-6-methyl-1-(1H-pyrazol-3-yl)-6,7-dihydrothieno[3,4-c]pyridin-4(5H)-one], 330 nM. For `CNc1sc(-c2cc[nH]n2)c2c1C(=O)N[C@@H](C)C2` [Example 99, (6S)-3-(methylamino)-6-methyl-1-(1H-pyrazol-3-yl)-6,7-dihydrothieno[3,4-c]pyridin-4(5H)-one], the IC50 turned out to be 1200 nM. `CNc1sc(-c2cc[nH]n2)c2c1C(=O)N[C@H](C)C2` [Example 100, (6R)-3-(methylamino)-6-methyl-1-(1H-pyrazol-3-yl)-6,7-dihydrothieno[3,4-c]pyridin-4(5H)-one]: the IC50 is 3100 nM.

For the origin of these results see patent publication US9233977B2, “Leucine-rich repeat kinase enzyme activity” (Merck Sharp & Dohme Corp., priority 2010, dated 2016).
